From patent US9139810B2, “Method for culturing microorganisms to incorporate a substitue element” (priority 2010, dated 2015)

What was measured:
E. coli K12 NBRC3301 [1] = format: cell-based, Escherichia coli
B. subtilis NBRC13719 = format: cell-based, Bacillus subtilis; details: Glc(1) + Yex (0.5); day 5
E. coli K12 NBRC 3301 = test: Growth and Si content of acetone-treated cells by ICP/MS (Example 4); format: cell-based, Escherichia coli; details: lac 1 + compound 5
[2] = test system: B. subtilis Marburg NBRC13719; test: as above; format: cell-based, Bacillus subtilis; details: for D 1 OD 660 nm: 22 hours; for D1ACW: acetone-treated dried cells
E. coli K12NBRC3301 = test: S starvation, adaptation culture with dSi and elementary analysis of cells by ICP-MS (Example 16); format: cell-based, Escherichia coli
E. coli K-12 (NBRC3993) = details: additive (mg/mL as printed in the row) to S(−)fa medium, 37° C.
E. coli K12 NBRC3301 [3] = details: C(αC)Y medium, FIG. 1
E. coli K12 NBRC3301 [4] = test: Growth and adaptation culture in C(αC+X)Y medium with mmSi (Example 2, FIG. 2); format: cell-based, Escherichia coli
Experimental: A C source-limited medium (C(αC) medium) was prepared by adding a limited amount of lactate Na as C source (denoted as “αC”) to a C source-deleted C (−) medium. Escherichia coli growth was then examined using a C(αC+X) medium prepared by adding a methyl group-containing organic silicon compound mmSi (methyltrimethoxysilane (see Tables 2 and 3 for abbreviations for the compound)) to the C(αC) medium as a C source substitute compound; that is, an X-containing compound. Moreover, the effects resulting from adaptation culture were examined (specifically, after completion of the 1st (T1) culture, 2nd subculture (T2) was started in a medium of the same composition).
C source substitute compound: X: mmSi (methyltrimethoxysilane). Culture conditions: 100 mL/Erlenmeyer flask; 33° C.; and 130 rpm. At the time of completion of the 1st culture of, a portion of the culture fluid was pipetted off. Cells were washed by centrifugation and then seeded in a medium of the same composition. The OD value at the initiation of the subculture was adjusted to be close to the initial OD value of the 1st culture generation.
In a manner similar to that in Example 1, E. coli K12 starter cells were grown in a GY medium, cells were washed, and then subjected to C source starvation culture. The resulting cells were seeded as starter cells in a medium. On day 2, the 1st culture (denoted as “T1d2” in FIG. 2) cells were washed and then the cells were seeded as starter cells in a medium of the same composition for 2nd subculture for adaptation. On day 2 of the 2nd subculture (T2d2), the growth was measured.

S. cerevisiae NBRC0268 = test: Growth and Si content of acetone-treated cells by ICP/MS (Example 4); format: cell-based, Saccharomyces cerevisiae; details: lac 3 + compound 5
[5] = lac 2 mg/mL + Y 0.5 mg/mL, FIG. 2
[6] = S(dSi)fa medium, d 3, mean of 2 to 3 flasks

Compound: O=BOB(O)OB(O)OB=O [BB, Borax or sodium borate]
- colony count and OD value compared with medium with only limited C source (E. coli K12 NBRC3301 [1]; C source substitute compound): increased
- OD 660 nm (d5) (E. coli K12 NBRC3301 [1]; Lac (2) + Y, X (10), day 5): 1.59

Compound: CCO[Si](C)(C)OCC [emSi, Diethoxydimethylsilane]
- OD 660 nm (d5) (B. subtilis NBRC13719): 6.69
- D 1 OD 660 nm (E. coli K12 NBRC 3301; 22 hours): 1.79
- D1ACW (E. coli K12 NBRC 3301; acetone-treated dried cells): 203 mg/100 mL
- D 1 OD 660 nm ([2]; lac 1 + compound 5): 2.48
- D1ACW ([2]; lac 1 + compound 5): 289 mg/100 mL

Compound: O=S(=O)([O-])[O-].[Na+].[Na+] [Sodium sulfate, Sodium sulfate, anhydrous, reference compound]
- OD 660 nm (E. coli K12NBRC3301; test 2, S(−)fa + Na2SO4 (0.2 mg/mL), d3): 200 (OD 4.2)
- Amount of E. coli K12NBRC3993 growth OD660 × 10 d (cultured for 1 day) (E. coli K-12 (NBRC3993)): 0.144

Compound: CCO [ethanol]
- OD with ethanol equimolar to the ethyl group in emSi, compared with emSi (E. coli K12 NBRC3301 [3]): lower than that of emSi

Compound: N[C@@H](CS)C(=O)O [L-cysteine]
- Amount of E. coli K12NBRC3993 growth OD660 × 10 d (cultured for 1 day) (E. coli K-12 (NBRC3993)): 0.240

Compound: CO[Si](C)(OC)OC [mmSi, Methyltrimethoxysilane]
- amount of growth in 2nd subculture versus 1st subculture (E. coli K12 NBRC3301 [4]; adaptation culture, T2d2 vs T1d2): higher than that of the 1st subculture
- OD value compared with control (only limited amount of C source) (E. coli K12 NBRC3301 [4]; [5]): increased
- dose dependence of increases in OD value (E. coli K12 NBRC3301 [4]; [5]): in a dose-dependent manner
- growth on the compound alone (E. coli K12 NBRC3301 [4]; no limited C source (rightmost in FIG. 2)): did not grow
- D 1 OD 660 nm ([2]; lac 3 + compound 5): 2
- D1ACW ([2]; lac 3 + compound 5): 309 mg/100 mL
- D 1 OD 660 nm (S. cerevisiae NBRC0268; 22 hours): 3.14
- D1ACW (S. cerevisiae NBRC0268; acetone-treated dried cells): 274 mg/100 mL

Compound: Sodium disilicate [dSi]
- OD 660 nm at end of 4th subculture of adaptation culture (E. coli K12NBRC3301; [6]): 1.93
- OD 660 nm at end of 5th subculture of adaptation culture (E. coli K12NBRC3301; [6]): 3.22
- OD 660 nm at end of 3rd subculture of adaptation culture (E. coli K12NBRC3301; S(dSi)fa medium, d 7, mean of 2 to 3 flasks): 1.91
- OD 660 nm at end of 2nd subculture of adaptation culture (E. coli K12NBRC3301; S(dSi)fa medium, d 9, mean of 2 to 3 flasks): 2.00
- OD 660 nm at end of 1st subculture of adaptation culture (E. coli K12NBRC3301; S(dSi)fa medium, d 13, mean of 2 to 3 flasks): 2.13
- OD 660 nm (E. coli K12NBRC3301; test 3, S(−)fa + Na2SO4 (0.02) + dSi (0.4 mg/mL), d3): 170 (OD 6.0)
- OD 660 nm (E. coli K12NBRC3301; test 4, S(−)fa + dSi (0.4 mg/mL), no S source, d4): 190 (OD 3.0)
